From US5204311A, “Ethanediimidic acid bis[(arylalkylidene)hydrazide] color-formers” (Minnesota Mining and Manufacturing Company, priority 1991, dated 1993)
Entries after “also recorded” stand apart in the source; their conditions may differ.

Tests used:
[1] = Color (Hunter coordinates) of Ni complex, swabbed on Ni-coated receptor (CF) sheet; type: physicochemical; set-up: key to Hunter coordinate a / Hunter Coordinates a: Hunter a: +a red, -a green; key to Hunter coordinate b / Hunter Coordinates b: Hunter b: +b yellow, -b blue; conditions: for Chroma: C=(a^2 +b^2)^1/2; for Chroma / Hunter Coordinates L / Hunter Coordinates a / Hunter Coordinates b / Image Color: Ni(II) complex; for Chroma / Image Color: swab concn. 1% (Table 2); for Hunter Coordinates L / Hunter Coordinates a / Hunter Coordinates b: swab concn. 1%, 45°/0° reflectance, illuminant C (Table 2); for color of nickel / transition metal coordination compound (in words) / Chroma (in words): description
Method: In general, the colors of the complexes, as listed in Table 2 and Experiments 4, 6, and 7 below, were determined by preparing a 1% solution of the color-former or mixture of color-formers in an appropriate solvent. Unless otherwise indicated, the solvent was composed of a mixture of tributyl phosphate (26.5%), diethyl phthalate (17.6%), and cyclohexane (55.9%). The images were formed by applying two stripes of the solution to a substrate coated with a Ni^2+ coated receptor sheet using a cotton tipped applicator swab. Rapid and complete development of the image was achieved by passing the sheet through a hot shoe adjusted to 102° C., making a revolution every 10 seconds. The visually observed colors were measured and recorded.
One method of color measurement is to determine the color's position in color space. One color space system is the Hunter System; see F. W. Billmeyer, Jr., and M. Saltzman, Principles of Color Technology; John Wiley & Sons; New York, N.Y.; Ch. 2 & 3, 1981. In this system three mutually perpendicular axes (L, a, and b) are needed to define a color. "L" (+z axis) represents the lightness or darkness of the image; "a" (x axis) represents the amount of red or green (+a is red, -a is green); and "b" (y axis) represents the amount of yellow or blue (+b is yellow, -b is blue). By measuring a material's L, a, and b values, the color of one sample can be compared with that of other samples. Another value used in the Hunter System is Chroma (C). Chroma is defined by the equation [C=(a^2 +b^2)^1/2 ] and represents the distance of the image coordinates from the origin. The greater the Chroma, the more intense the image. Chroma is used to compare images cf the same hue. Because the color of a sample is also dependent upon the color temperature of the illuminating source, the angle at which the sample is illuminated, the angle at which the illumination is reflected, and the angle of the retina illuminated, these all need to be specified. Many instruments have been developed to record these values. One such instrument is the HunterLab LabScan II. This instrument is capable of automatically determining the L, a, and b values for a given sample, and was used for the following examples.
The L, a, and b color coordinates of the more uniform stripe were measured for 45°/0° reflectance on a HunterLab LabScan II, secondary observer, using illuminant C. The observed (image) color and the Hunter coordinates for Ni^2+ complexes of the yellow color-formers of this invention are given in Table 2.
A 1% solution of the condensation product in the encapsulation fill mix was swabbed onto a carbonless paper CF sheet (sold by the 3M Co. St. Paul, Minn.) with a cotton swab. The reflectance spectra had Hunter coordinates of: […]

[2] = Solubility in capsule fill solvents; type: physicochemical
Method: The encapsulation process requires the color-forming ligand be dissolved in a solvent or mixed solvents, because of the nature of the procedure. Formation of a microcapsule shell as by condensation of urea or melamine with an aldehyde such as formaldehyde or mixtures of aldehydes to form the capsule shell is carried out in an acidic aqueous medium and the color-former solution must be insoluble and unreactive to these reagents for the encapsulation to proceed. Solvents commonly used include tributyl phosphate, diethyl phthalate, and cyclohexane. […] As mentioned above, solubility of yellow color-formers exemplified by structure I in nonaqueous solvents such as those used in the encapsulation process may be increased by substituting alkyl, aryl, aralkyl, alkenyl, or such groups for the hydrogens on the various positions available in the structure I above.
This color observed on the CF sheet was yellow. […] Solubility in a solvent blend of tributyl phosphate, diethyl phthalate and cyclohexane (capsule solvents for preparing carbonless copy-paper) was >9% by weight. Thus the ligand is eminently suitable for encapsulation. The ligand is not volatile at 71 ° C. overnight.
Solubility in a solvent blend of tributyl phosphate, diethyl phthalate and cyclohexane (capsule solvents for preparing carbonless copy-paper) was 3% by weight. Thus the ligand is eminently suitable for encapsulation. The ligand is not volatile at 71 ° C. overnight.
*THE SOLUBILITY WAS DEEMED PREFERABLE IF IT WAS GREATER THAN 2% IN THE
FILL MIX AT ROOM TEMPERATURE FOR 3 DAYS. THE FILL MIX COMPRISED
TRIBUTYLPHOSPHATE (26.5%); DIETHYLPHTHALATE (17.6%); AND CYCLOHEXANE

| Compound | Chroma [1] | Hunter Coordinates L [1] | Hunter Coordinates a [1] | Hunter Coordinates b [1] | color of nickel / transition metal coordination compound (in words) [1] | Dye Solubility ([2]; 4320 min) | Image Color [1] | measured reflectance density (in words) ([1]; nickel complex) | Chroma (in words) ([1]; nickel complex) | Dye Solubility ([2]; fill mix tributylphosphate (26.5%), diethylphthalate (17.6%), cyclohexane (55.9%), room temperature, 3 days (Table 2)) |
| --- | --- | --- | --- | --- | --- | --- | --- | --- | --- | --- |
| CC(C)(C)c1cc(C=NN=C(N)C(N)=NN=Cc2cc(C(C)(C)C)c(O)c(C(C)(C)C)c2)cc(C(C)(C)C)c1O [Compound 2, Ethanediimidic acid bis[(4-hydroxy-3,5-di-t-butylphenylmethylene)hydrazide]] | 19.2 | 90.0 | -8.0 | 17.6 | much weaker | > 2.0% |  |  | lower Chroma |  |
| NC(=NN=Cc1cc(Br)ccc1O)C(N)=NN=Cc1cc(Br)ccc1O [Compound 3, Ethanediimidic acid bis[(2-hydroxy-5-bromophenylmethylene)hydrazide]] | 41.1 | 81.9 | -7.5 | 40.5 |  | < 2.0% | Yellow |  |  |  |
| NC(=NN=Cc1cc([N+](=O)[O-])ccc1O)C(N)=NN=Cc1cc([N+](=O)[O-])ccc1O [Compound 4, Ethanediimidic acid bis[(2-hydroxy-5-nitrophenylmethylene)hydrazide]] | 40.1 | 83.9 | -9.7 | 38.9 |  |  | Yellow |  |  | < 2.0% |
| CCN(CC)c1ccc(C=NN=C(N)C(N)=NN=Cc2ccc(N(CC)CC)cc2O)c(O)c1 [Compound 5, Ethanediimidic acid bis[(2-hydroxy-4-diethylaminophenylmethylene)hydrazide]] | 41.4 | 80.9 | -5.2 | 41.0 |  | < 2.0% | Yellow |  |  |  |
| CC(=NN=C(N)C(N)=NN=C(C)c1ccccc1O)c1ccccc1O [Compound 6, Ethanediimidic acid bis[(2-hydroxyphenyl-methyl-methylene)hydrazide]] | 20.1 | 48.3 | -5.3 | 19.4 | yellow | < 2.0% | Yellow |  |  |  |
| CCOC(=O)CC(C)=NN=C(N)C(N)=NN=C(C)CC(=O)OCC [Compound 7] | 15.4 | 89.4 | -5.8 | 14.3 |  | > 2.0% |  |  |  |  |
| NC(=NN=C(c1ccccc1)c1ccc(O)cc1O)C(N)=NN=C(c1ccccc1)c1ccc(O)cc1O [Compound 8, Ethanediimidic acid bis[(2,4-dihydroxyphenyl-phenyl-methylene)hydrazide]] | 18.0 | 88.0 | -6.0 | 17.0 |  | < 2.0% |  |  |  |  |
| COc1cccc(C=NN=C(N)C(N)=NN=Cc2cccc(OC)c2O)c1O [Compound 10, Ethanediimidic acid bis[(2-hydroxy-3-methoxyphenylmethylene)hydrazide]] | 36.2 | 86.4 | -11.1 | 34.5 |  | < 2.0% | Yellow |  |  |  |
| CCCCCCC=NN=C(N)C(N)=NN=CCCCCCC [Compound 15] | 11.6 | 89.9 | -4.2 | 10.8 | very weakly yellow; also recorded: weak yellow | > 2.0% |  | low | low and low Chroma value |  |

Now from value to compound, other results behind:

| Chroma [1] | Hunter Coordinates L [1] | Hunter Coordinates a [1] | Hunter Coordinates b [1] | color of nickel / transition metal coordination compound (in words) [1] | Dye Solubility ([2]; 4320 min) | Image Color [1] | measured reflectance density (in words) ([1]; nickel complex) | Compound | Chroma (in words) ([1]; nickel complex) | Dye Solubility ([2]; fill mix tributylphosphate (26.5%), diethylphthalate (17.6%), cyclohexane (55.9%), room temperature, 3 days (Table 2)) |
| --- | --- | --- | --- | --- | --- | --- | --- | --- | --- | --- |
| 39.3 | 88.4 | -15.2 | 36.2 |  | < 2.0% | Yellow |  | CCOc1cccc(C=NN=C(N)C(N)=NN=Cc2cccc(OCC)c2O)c1O [Compound 11, Ethanediimidic acid bis[(2-hydroxy-3-ethoxyphenylmethylene)hydrazide]] |  |  |
| 25.8 | 89.4 | -10.6 | 23.5 |  | < 2.0% | Yellow |  | NC(=NN=Cc1ccco1)C(N)=NN=Cc1ccco1 [Compound 12, Ethanediimidic acid bis[(furylmethylene)hydrazide]] | intermediate between that of aliphatic and the preferred o-substituted ligands |  |
|  | 72.6 | 11.2 | 13.9 |  | < 2.0% | Brown |  | NC(=NN=Cc1cccs1)C(N)=NN=Cc1cccs1 [Compound 13, Ethanediimidic acid bis[(2-thienylmethylene)hydrazide]] | intermediate between that of aliphatic and the preferred o-substituted ligands |  |
| 35.0 | 86.5 | -11.0 | 33.2 |  | < 2.0% | Yellow |  | NC(=NN=Cc1ccccn1)C(N)=NN=Cc1ccccn1 [Compound 14, Ethanediimidic acid bis[(2-pyridylmethylene)hydrazide]] | intermediate between that of aliphatic and the preferred o-substituted ligands |  |
| 28.5 | 86.6 | -6.5 | 27.8 |  | < 2.0% | Yellow |  | NC(=NN=Cc1c(O)ccc2ccccc12)C(N)=NN=Cc1c(O)ccc2ccccc12 [Compound 17, Ethanediimidic acid bis[(2-hydroxy-1-naphthylmethylene)hydrazide]] |  |  |
